Assay [1] relates to SF-268 (central nervous system glioblastoma). Description: SF-268 cell growth inhibition (MTT). To be noted: Homo sapiens, SF-268. It is filed as cell-based, human.
The subject of another assay is Vγ2Vδ2 T cells. Nature of the assay: γδ T cell activation (TNF-α release and proliferation). The class given is cell-based, human. Summed up:
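Vγ2Vδ2 T cell clones (CD4+ JN.24, CD4+ HF.2, CD8αα+ 12G12, CD4−8− HD.108) stimulated with phosphoantigens plus 0.05% glutaraldehyde-fixed APCs: CP.EBV B cells for CD4+ clones, Va-2 fibroblasts for others. TNF-α release and proliferation measured; curve minima from global fitting per experiment, maxima fitted per compound unconstrained.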

A further assay addresses T1, human FPPS (Homo sapiens, UniProt P14324).
T1 construct: made in house
T1 sequence (P14324 1-419): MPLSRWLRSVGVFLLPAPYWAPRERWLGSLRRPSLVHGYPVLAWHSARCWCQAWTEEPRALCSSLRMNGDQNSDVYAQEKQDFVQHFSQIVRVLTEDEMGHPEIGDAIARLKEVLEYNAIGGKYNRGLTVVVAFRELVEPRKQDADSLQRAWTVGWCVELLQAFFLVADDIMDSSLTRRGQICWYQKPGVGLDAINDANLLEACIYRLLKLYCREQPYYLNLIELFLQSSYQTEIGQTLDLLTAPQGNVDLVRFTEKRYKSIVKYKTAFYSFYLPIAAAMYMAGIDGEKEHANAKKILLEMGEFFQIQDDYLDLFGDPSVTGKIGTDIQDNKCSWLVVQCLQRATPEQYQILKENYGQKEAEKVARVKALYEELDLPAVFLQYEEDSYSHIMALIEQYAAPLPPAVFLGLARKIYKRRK
Description: human FPPS enzyme inhibition. It is filed as biochemical. From the text: (§1) To test our polypharmaceutical hypothesis, we expressed three enzymes: human FPPS, GGPPS and DPPS, and tested each for their inhibition by a series of bisphosphonates.

Another assay deals with T2, human DPPS (Homo sapiens, UniProt Q5T2R2).
T2 construct: made in house
T2 sequence (Q5T2R2 1-415): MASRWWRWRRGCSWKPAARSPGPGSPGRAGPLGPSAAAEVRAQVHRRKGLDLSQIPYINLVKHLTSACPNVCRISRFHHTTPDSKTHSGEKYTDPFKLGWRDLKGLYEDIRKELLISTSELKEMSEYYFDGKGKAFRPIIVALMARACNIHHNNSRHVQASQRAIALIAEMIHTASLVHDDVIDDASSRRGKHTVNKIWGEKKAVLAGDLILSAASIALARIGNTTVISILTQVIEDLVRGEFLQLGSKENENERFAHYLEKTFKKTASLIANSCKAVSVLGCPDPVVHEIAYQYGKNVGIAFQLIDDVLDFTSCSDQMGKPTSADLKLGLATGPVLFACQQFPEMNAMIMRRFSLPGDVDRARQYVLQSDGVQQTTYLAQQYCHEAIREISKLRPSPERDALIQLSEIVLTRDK
T2 sequence (Q86YH6 1-399 partner): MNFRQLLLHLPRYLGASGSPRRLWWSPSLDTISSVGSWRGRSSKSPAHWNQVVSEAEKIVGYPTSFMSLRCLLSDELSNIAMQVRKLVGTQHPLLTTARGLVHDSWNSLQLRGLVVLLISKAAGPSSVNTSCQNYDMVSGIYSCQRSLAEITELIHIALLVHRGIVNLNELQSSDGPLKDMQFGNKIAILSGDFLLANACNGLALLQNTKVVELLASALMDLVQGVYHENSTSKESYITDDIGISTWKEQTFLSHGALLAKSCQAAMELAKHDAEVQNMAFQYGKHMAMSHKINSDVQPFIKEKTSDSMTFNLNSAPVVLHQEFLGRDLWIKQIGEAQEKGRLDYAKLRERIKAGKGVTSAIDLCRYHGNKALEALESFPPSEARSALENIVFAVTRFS
Nature of the assay: human DPPS enzyme inhibition. The class given is biochemical.
Description: as §1

Assay [2] addresses T3, human recombinant geranylgeranyl diphosphate synthase (hGGPPS) (Homo sapiens, UniProt O95749).
T3 construct: made in house
T3 sequence (O95749 1-300): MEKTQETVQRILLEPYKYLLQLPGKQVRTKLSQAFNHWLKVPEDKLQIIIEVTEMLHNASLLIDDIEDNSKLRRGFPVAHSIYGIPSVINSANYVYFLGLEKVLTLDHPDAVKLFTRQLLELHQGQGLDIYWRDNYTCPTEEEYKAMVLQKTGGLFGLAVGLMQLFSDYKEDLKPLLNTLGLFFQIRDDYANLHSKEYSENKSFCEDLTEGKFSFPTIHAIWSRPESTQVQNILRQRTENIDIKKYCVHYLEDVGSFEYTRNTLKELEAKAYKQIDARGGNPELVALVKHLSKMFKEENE
Nature of the assay: Human recombinant GGPPS inhibition (radiometric assay). It is filed as biochemical. As for the experimental part: as §1
Human recombinant GGPPS inhibition. The purification of human recombinant geranylgeranyl diphosphate synthase (hGGPPS) followed the protocol reported previously^2. GGPPS inhibition by bisphosphonates was determined using the radiometric assay reported previously^2 with slight modification. […] IPP and incubated at 37° C. for 20 min. The reaction was terminated by the addition of 75 μL of HCl/MeOH. Following a second 20 min incubation at 37° C. to effectively hydrolyze the allylic pyrophosphates, the reaction mixtures were neutralized by the addition of 75 μL of 6 N NaOH and extracted with 500 μL of hexane. 200 μL of the organic phase was transferred to a scintillation vial for counting. The IC50 values were obtained by fitting the data to the dose-response curve in Origin 6.1 (OriginLab Corp., Northampton, Mass., www.OriginLab.com).

Assay [3] deals with MCF-7 (breast adenocarcinoma). Nature of the assay: MCF-7 cell growth inhibition (MTT), incl. FOH/GGOH rescue. The class given is cell-based, human. The settings on record: for IC50: Homo sapiens, MCF7.

SMILES strings stand for the structures. Read-outs that look alike come from different tables or passages of the source.

Regarding `CCCCCCCCCCOc1cccc(CC(O)(P(=O)(O)O)P(=O)(O)O)c1` [BPH-754], the IC50 in assay [1] (Table 1, experimental, read-out: SF-268 pIC50 (converted)) is 25.1 µM; in assay [1] (read-out: IC50, inhibition of human CNS cancer SF268), 0.524 µM; in assay [3] (Table 1, experimental, read-out: MCF-7 pIC50 (converted)) it was 25.1 µM; in assay [3] (read-out: IC50, inhibition of human breast cancer cell line MCF7), 0.401 µM. Moreover, the “γδ T cell activation” value in the assay on Vγ2Vδ2 T cells is on record as “no effect”. In addition, the “effect on FPPS” value at human FPPS is “essentially no effect”. For the same molecule, the Ki on human FPPS (Table 1, experimental, read-out: FPPS pKi (converted)) is 5.01 µM; at human DPPS (Table 1, experimental, read-out: DPPS_pKi (converted)) it was 0.2 µM; in assay [2] (Table 1, experimental, read-out: GGPPS pKi (converted)), 0.0158 µM. Moreover, on human DPPS, the “effect on DPPS” value is reported as “essentially no effect”. The “effect on GGPPS” value in assay [2] is “good GGPPS inhibitor”. Further, the “rescue from growth inhibition by geranylgeraniol (GGOH)” value in assay [3] (GGOH 20 μM) was “rescued by GGOH”.
